From patent publication EP1138666B1, “A preparation method for 4-(P-methoxyphenyl)-2-amino-butane and an insecticidal composition comprising it” (Council of Scientific and Industrial Research, priority 2000, dated 2001) come the findings set out here.

The structures appear in SMILES notation.

Data set [1] has as its system 4th instar larvae of Spilarctia Obliqua. Description: growth inhibition assay, diet-mix method, larval weight gain or loss. Format: in vivo. The settings on record: for growth inhibition: result in words, bioassay studies. On the procedure:
(§1) The compound having formula (1) was evaluated as feeding deterrent and growth inhibitor against 4th in star larvae of spilarctia obliqua (Bihar hairy caterpillar). This insect attacks more than twenty cash crops like urd, moong, arhar, mint and coleus etc. Several synthetic insecticides like quinalphos, Phosphamidon and synthetic pyrethroids are commercially used to manage this insect pest. But, the insect is developing resistance towards some of these insecticides. Therefore, it has now become imperative to search for new ecologically safe, environmentally sound and non-toxic chemicals to manage this pest.
(§2) With compound having formula (1) insect feeding deterrency and growth inhibition was tested by diet-mix method. In this method, 4-(p-methoxyphenyl)-2-aminobutane,the compound having formula (1) was dissolved in acetone to make various concentrations ranging from 1000 to 5000 ppm. Test solution was mixed in the artificial diet of the insect so that each gram of diet contained 60-300 µg of the compound (1). 4th in star larva (newly molted) starved four hours, was weighed and released on treated artificial diet in thirty replications. In control, only solvent acetone was mixed and azadirachtin at 1000 ppm concentration was taken as standard for feeding bioassay. After 24 hours, number of fecal pellets produced were counted, and the data were analyzed for % feeding deterrency. Some experiments were continued for next 24 hours and weights of the larva were taken daily. After 3 days, experiment was discontinued and weight gain or loss was analyzed for % growth inhibition.
Diflubenzuron at 5 ppm was taken as a standard in case of growth inhibitory assay. The test result of compound having formula (1) in terms of its feeding deterrency and growth inhibition as compared to standards azadirachtin and diflubenzuron are given in table 1.

A short description of data set [2]: sensitivity to light (UV and sunlight). Format: physicochemical.
The test system of data set [3] is 4th instar larvae of Spilarctia Obliqua. As to the kind of experiment: feeding deterrency (antifeedant) bioassay, diet-mix method, fecal pellet count. As to conditions: for % feeding deterrency: artificial diet, after 24 hours; for antifeedant activity: result in words, bioassay studies. Type of data set: in vivo. On the procedure:
as §1, §2

[4] abbreviates: Spilarctia obliqua, 72 h, read-out: % growth inhibition.

Turning to `O=C(NC(=O)c1c(F)cccc1F)Nc1ccc(Cl)cc1` [Diflubenzuron, reference compound], the inhibition (commonly the relative decrease from the control value, in per cent) at 5 ppm in data set [1] (Spilarctia obliqua, 72 h, 5 ppm, artificial diet, after 3 days) was 100%.

In the case of `COc1ccc(CCC(C)N)cc1` (stereo not drawn) [Compound 1, 4-(p-methoxyphenyl)-2-amino-butane], the sensitivity to light result in data set [2] is “not sensitive to light”. Besides, the “% feeding deterrency” value in data set [3] (1000 ppm) came out at 32.0%. Further, in data set [3] (2000 ppm), the “% feeding deterrency” value amounted to 40.0%. Further, in data set [3] (3000 ppm), the “% feeding deterrency” value is listed as 64.0%. Also, the “% feeding deterrency” value in data set [3] (4000 ppm) is on record as 82.0%. In data set [3] (5000 ppm), the “% feeding deterrency” value was determined as 100.0%. For the same compound, the antifeedant activity entry in data set [3] is “significant activity”. Further, in data set [1] (setting [4]), the inhibition at 1000 ppm is 48%, the inhibition at 2000 ppm is 59%, the inhibition at 3000 ppm is 72% and the inhibition at 4000 ppm was found to be 100%. Besides, the inhibition at 5000 ppm in data set [1] (setting [4]) worked out at 128%. The growth inhibition result in data set [1] was “significant activity”.

As for `C/C=C(\C)C(=O)O[C@H]1C[C@@H](OC(C)=O)[C@@]2(C(=O)OC)CO[C@H]3[C@@H](O)[C@@](C)([C@]45O[C@@]4(C)[C@H]4C[C@@H]5O[C@@H]5OC=C[C@@]54O)[C@H]4[C@]1(CO[C@]4(O)C(=O)OC)[C@@H]32` [Azadirachtin, reference compound], the sensitivity to light result in data set [2] is recorded as “photosensitive”. For the same compound, the “% feeding deterrency” value in data set [3] (1000 ppm) was 100.0%.

With `CC(O)CCc1ccc(O)cc1` (stereo not drawn) [compound (2), 4-(p-hydroxyphenyl)-butan-2-ol], the antifeedant activity entry in data set [3] is “not found to be active”. Further, the growth inhibition entry in data set [1] is given as “not found to be active”.
